Data: the supplement of paper PMC10307832

Tests used:
Experiment in all cases: relative viability (nuclei count vs DMSO), 5 days (fraction); higher = more cells survive
[1] = compound: COC1=CC=C(C=C1)CN2C=CC3=C2C=C(C=C3)C(=O)NO + CCNC(=O)c1noc(-c2cc(C(C)C)c(O)cc2O)c1-c1ccc(CN2CCOCC2)cc1 [Luminespib] (partner 0.01 µM)
In short: (§1)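 Relative viability equals treated-well nuclei counts divided by vehicle-well nuclei counts. Counts came from 4× images of lung cancer cell lines grown in 1536-well plates for 5 days after pin-tool dosing on the day after seeding. Dosing used one drug alone or a fixed anchor-drug dose plus five library-drug doses (not always all listed) in √10 steps, and values are medians of duplicate plates.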

Veliparib + Olaparib = compound: C[C@]1(c2nc3c(C(N)=O)cccc3[nH]2)CCCN1 [Veliparib] + O=C(c1cc(Cc2n[nH]c(=O)c3ccccc23)ccc1F)N1CCN(C(=O)C2CC2)CC1 [Olaparib] (partner 8 µM)
In short: as §1

[2] = compound: COC1=CC=C(C=C1)CN2C=CC3=C2C=C(C=C3)C(=O)NO + CC(=O)Nc1cccc(-n2c(=O)n(C3CC3)c(=O)c3c(Nc4ccc(I)cc4F)n(C)c(=O)c(C)c32)c1 [Trametinib] (partner 0.02 µM)
In short: as §1

Veliparib + Pictilisib = compound: C[C@]1(c2nc3c(C(N)=O)cccc3[nH]2)CCCN1 [Veliparib] + CS(=O)(=O)N1CCN(Cc2cc3nc(-c4cccc5[nH]ncc45)nc(N4CCOCC4)c3s2)CC1 [Pictilisib] (partner 1 µM)
In short: as §1

Cell Line | relative viability ([1]; first compound 0.08 µM) | relative viability ([1]; first compound 0.253 µM) | relative viability ([1]; first compound 0.8 µM) | relative viability ([1]; first compound 2.53 µM) | relative viability ([1]; first compound 8 µM) | relative viability (Veliparib + Olaparib; first compound 0.02 µM) | relative viability (Veliparib + Olaparib; first compound 0.06325 µM) | relative viability (Veliparib + Olaparib; first compound 0.2 µM) | relative viability (Veliparib + Olaparib; first compound 0.6325 µM) | relative viability (Veliparib + Olaparib; first compound 2 µM) | relative viability ([2]; first compound 0.08 µM) | relative viability ([2]; first compound 0.253 µM) | relative viability ([2]; first compound 0.8 µM) | relative viability ([2]; first compound 2.53 µM) | relative viability ([2]; first compound 8 µM) | relative viability (Veliparib + Pictilisib; first compound 0.02 µM) | relative viability (Veliparib + Pictilisib; first compound 0.06325 µM) | relative viability (Veliparib + Pictilisib; first compound 0.2 µM) | relative viability (Veliparib + Pictilisib; first compound 0.6325 µM) | relative viability (Veliparib + Pictilisib; first compound 2 µM)
NCI-H1755 | 0.398 | 0.312 | 0.499 | 0.508 | 0.356 | 0.821 | 0.798 | 0.877 | 0.881 | 0.915 | 0.711 | 0.77 | 0.791 | 0.758 | 0.753 | 0.403 | 0.415 | 0.479 | 0.434 | 0.432
NCI-H1792 | 0.37 | 0.638 | 0.529 | 0.35 | 0.414 | 0.693 | 0.311 | 0.68 | 0.411 | 0.397 | 0.459 | 0.426 | 0.394 | 0.379 | 0.423 | 0.322 | 0.212 | 0.301 | 0.263 | 0.332
NCI-H1793 |  | 0.184 | 0.17 | 0.18 | 0.219 | 0.954 | 0.976 | 0.827 | 0.851 | 1.01 |  | 0.471 | 0.449 | 0.416 | 0.336 | 0.375 | 0.306 | 0.343 | 0.261 | 0.356
NCI-H1915 | 0.646 | 0.812 | 0.885 | 0.84 | 0.768 | 0.252 | 0.238 | 0.243 | 0.251 | 0.254 | 0.282 | 0.297 | 0.305 | 0.32 | 0.31 | 0.989 | 0.87 | 0.727 | 0.808 | 0.86
NCI-H1944 |  | 0.788 | 0.791 | 0.748 | 0.728 | 0.433 | 0.437 | 0.418 | 0.388 | 0.385 |  | 0.415 | 0.449 | 0.421 | 0.429 | 0.344 | 0.311 | 0.338 | 0.323 | 0.351
NCI-H1975 | 0.26 | 0.238 | 0.281 | 0.262 | 0.114 | 0.77 | 0.745 | 0.788 | 0.748 | 0.776 | 0.308 | 0.348 | 0.359 | 0.413 | 0.349 | 0.292 | 0.283 | 0.336 | 0.282 | 0.287
NCI-H1993 | 0.57 | 0.812 | 1.09 | 0.826 | 0.845 |  | 1.05 | 1.2 | 1.03 | 1.13 | 0.526 | 0.564 | 0.518 | 0.514 | 0.543 | 0.772 | 0.826 | 0.822 | 0.807 | 0.805
NCI-H2009 | 1.04 | 1.04 | 1 | 1.02 | 0.933 | 0.672 | 0.652 | 0.682 | 0.672 | 0.763 | 0.288 | 0.264 | 0.261 | 0.248 | 0.194 | 0.734 | 0.777 | 0.704 | 0.786 | 0.813
NCI-H2023 | 0.67 | 0.885 | 0.724 | 0.586 | 0.553 | 0.486 | 0.477 | 0.439 | 0.446 | 0.439 | 0.478 | 0.594 | 0.474 | 0.589 | 0.48 | 0.196 | 0.238 | 0.251 | 0.209 | 0.224
NCI-H2085 | 0.392 | 0.413 | 0.409 | 0.447 | 0.471 | 0.789 | 0.776 | 0.779 | 0.708 | 0.734 | 0.528 | 0.665 | 0.692 | 0.524 | 0.406 | 0.468 | 0.463 | 0.39 | 0.415 | 0.396
NCI-H2087 | 0.131 | 0.165 | 0.193 | 0.208 | 0.132 | 0.648 | 0.484 | 0.642 | 0.589 | 0.681 | 0.163 | 0.204 | 0.232 | 0.181 | 0.154 | 0.609 | 0.783 | 0.726 | 0.65 | 0.871
NCI-H2126 | 0.839 | 0.967 | 0.944 | 0.917 | 0.881 | 0.905 | 0.925 | 0.913 | 0.927 | 0.865 | 0.569 | 0.592 | 0.6 | 0.622 | 0.581 | 0.531 | 0.452 | 0.507 | 0.458 | 0.537
NCI-H2170 | 0.566 | 0.748 | 0.549 | 0.833 | 0.589 | 0.573 | 0.587 | 0.58 | 0.586 | 0.586 | 0.888 | 0.931 | 0.867 | 0.897 | 0.865 | 0.328 | 0.345 | 0.314 | 0.346 | 0.347
NCI-H2228 |  | 0.193 | 0.179 | 0.142 | 0.13 | 0.807 | 0.58 | 0.913 | 0.541 | 0.754 | 0.386 | 0.664 | 0.831 | 0.598 | 0.433 | 0.464 | 0.538 | 0.378 | 0.463 | 0.425
NCI-H2347 | 0.361 | 0.383 | 0.396 | 0.552 | 0.501 | 0.587 | 0.549 | 0.597 | 0.586 | 0.576 | 0.268 | 0.313 | 0.303 | 0.283 | 0.235 | 0.666 | 0.612 | 0.668 | 0.707 | 0.724
NCI-H2405 | 0.59 | 0.689 | 0.77 | 0.679 | 0.583 | 0.927 |  | 0.888 | 0.872 | 0.939 | 0.544 |  | 0.641 | 0.686 | 0.625 |  | 0.46 | 0.456 | 0.468 | 0.308
